“Also recorded” adds a separate entry of the source.
Columns and labels:
[1] = molecular target: recombinant Chit1 (Homo sapiens, UniProt Q13231); test: Chit1 inhibitor screen and dose-response validation; format: biochemical; settings: for ability to inhibit Chit1 (chitotriosidase) activity: among aminoglycoside antibiotics (FIG. 1)
Procedure: FIG. 4 depicts dose-response validation of inhibitory activities of kasuagmycin on Chit1 activities
Chit1 is a biomarker and therapeutic target of SSc-ILD, as well as plahing a significant role in bleomycin- and IL-13-induced pulmonary fibrosis. In order to discover new therapeutic approaches for fibrotic diseases, we screened for inhibitors of Chit1, using pentoxifylline as a positive control. The results of the screen were expressed as a % of the inhibitory activity of 200 uM of pentoxifylline. This assay identified 51 compounds that have more than 45% of inhibition (compared to 200 μM pentoxifylline). One of the compounds so identified was kasugamycin.
(§1) The results were validated by measuring dose-response (FIG. 4). Assay conditions were 0.33 nM of recombinant Chit1, 1 μM of test compound, 4 μM of substrate, 30 min incubation at room temperature.

[2] = tested on: bleomycin-induced pulmonary fibrosis; test: bleomycin I.P. model of pulmonary fibrosis, kasugamycin I.P.; format: in vivo, C57 BL/6 mice; settings: for pulmonary fibrosis / total lung collagen: bleomycin 25 Unit/kg daily for 6 days, kasugamycin 50 mg/Kg I.P. every other day, 7 doses, Sircol
Procedure: FIG. 2 depicts a schematic of experiments described herein, using a method reported by Inomata et al (Respiratory Research, 2014, 15:16) that was used for therapeutic efficacy of pirifenidone with minor modification. 8 Week old C57 BL/6 mice were used for the evaluation. Bleomycin (25 Unit/kg) was given daily for 6 days. Seven days after the last bleomycin challenge, Kasugamycin (50 mg/Kg) or PBS were delivered every other day via I.P. injection. The mice received a total of 7 doses of Kasugamycin. The mice were sacrificed a day after the last injection of Kasugamycin.
FIG. 3A depicts the results of a lung collagen assay by Sircol. FIG. 3B depicts results of RT-PCR assay of selected extracellular matrix genes on lung lysate *p<0.05, **p<0.01 by ANOVA evaluation, Bleo, bleomycin; KSM, kasugamycin.
The therapeutic window of kasugamycin was investigated using the method described in Inomata et al (Respiratory Research 2014 15:16) that was used to establish the therapeutic efficacy of pirifendidone, with minor modifications. Briefly, 8 week old C57 BL/6 mice were used for the evaluation. Bleomycin (25 Unit/kg) was given daily for 6 days. Seven days after the last bleomycin challenge, kasugamycin (50 mg/Kg) or PBS were delivered every other day via I.P. injection. The mice received a total of 7 doses of kasugamycin. The mice were sacrificed a day after the last injection of kasugamycin (FIG. 2).

[3] = tested on: bleomycin-induced pulmonary fibrosis; test: bleomycin I.T. model of pulmonary fibrosis; format: in vivo, mice; settings: bleomycin I.T. model (FIG. 9)
Procedure: FIG. 5 depicts schematic diagrams of in vivo validation of antifibrotic effect of Chit1 inhibitors using bleomycin models of pulmonary fibrosis
FIG. 9 depicts BAL cell recovery and total lung coallagen with and without Kasugamycin treatment (I.T. Model)
as §1

[4] = tested on: TGFβ1-stimulated inflammation and fibrosis; test: transgenic TGFβ1-stimulated inflammation and fibrosis; format: in vivo, TGFβ1 transgenic mice; settings: for fibrosis: transgenic TGFβ1 stimulation (FIG. 10, 11)
Procedure: FIG. 10 depicts graphs of the effect of Kasugamycin on transgenic TGFβ1-stimulated inflammation and fibrosis
FIG. 11 depicts the effect of kasugamycin on TGFβ1-stimulated fibrosis. In this figure WT=wild type mice; TG=TGFβ1 transgenic mice.
as §1

[5] = tested on: fibrosis (collagen accumulation); test: bleomycin-treated Hermansky-Pudlak syndrome mice; format: in vivo, HPS-1 null mice (pale ear mice); settings: bleomycin IP 5 consecutive days, kasugamycin 50 mg/kg qod from day 12
Procedure: FIG. 12A depicts a schematic illustration of the experiemental procedure. Bleomycin was given IP for 5 consecutive days followed by kasugamycin at 50 mg/kg qod for 7 days starting on day 12. FIG. 12B depicts a graph of the effects on fibrosis (collagen accumulation).

[6] = tested on: bleomycin-induced pulmonary fibrosis; test: kasugamycin by gavage in the bleomycin IP model; format: in vivo, WT C57BL/6 mice; settings: kasugamycin 50, 100 or 500 mg/kg by gavage everyday
Procedure: FIGS. 13A-13B depict the effect of kasugamycin when given by gavage in the bleomycin IP model. FIG. 13A depicts a schematic illustration of the experimental procedure. Pulmonary fibrosis was induced in WT C57BL/6 mice by injecting bleomycin 6 times intra-peritoneal (IP) injection (25 unit/kg) daily (day 1-6). Units/injection—100 uL of 6 U/mL bleomycin solution (0.6 unit/injection). Kasugamycin was then administered at 50 mg/kg, 100 mg/kg, or 500 mg/kg, gavage everyday. FIG. 13B depicts a graph of the effects on collagen count. The x-axis specifies the dose of kasugamcyin used.

[7] = cited from earlier work

Chain of recombinant Chit1 (Q13231 22-466, species assumed): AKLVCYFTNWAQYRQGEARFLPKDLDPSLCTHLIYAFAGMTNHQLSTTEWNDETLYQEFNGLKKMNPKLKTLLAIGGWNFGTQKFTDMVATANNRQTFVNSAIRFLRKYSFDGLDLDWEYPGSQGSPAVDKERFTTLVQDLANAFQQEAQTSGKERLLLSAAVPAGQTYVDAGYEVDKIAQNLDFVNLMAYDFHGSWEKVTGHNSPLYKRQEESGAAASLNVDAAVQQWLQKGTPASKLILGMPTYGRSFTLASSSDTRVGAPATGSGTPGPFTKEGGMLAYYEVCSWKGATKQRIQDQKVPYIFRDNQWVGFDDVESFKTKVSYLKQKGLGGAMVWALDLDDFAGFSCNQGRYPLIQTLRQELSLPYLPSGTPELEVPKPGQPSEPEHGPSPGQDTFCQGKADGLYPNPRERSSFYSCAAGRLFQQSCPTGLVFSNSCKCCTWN

Question: Which “inhibition of Chit1, expressed as % of the inhibitory activity of 200 uM pentoxifylline” value [1] does the source give for `C[C@H]1O[C@H](O[C@H]2[C@H](O)[C@@H](O)[C@@H](O)[C@H](O)[C@@H]2O)[C@@H](N)C[C@@H]1NC(=N)C(=O)O` [kasugamycin, 2-amino-2-[(2R,3S,5S,6R)-5-amino-2-methyl-6-[(2R,3S,5S,6S)-2,3,4,5,6-pentahydroxycyclohexyl]oxyoxan-3-yl]iminoacetic acid] here?
Answer: Its value is “more than 45%”.

Question: And the “ability to inhibit Chit1 (chitotriosidase) activity” value (“ability to inhibit Chit1” below) [1]?
Answer: The value was “can inhibit Chit1”.

Question: And the “ability to inhibit Chit1” value ([1]; listed as Kasugamycin)?
Answer: The value was “unique in its ability to inhibit chitotriosidase activity”.

Question: What about the “ability to inhibit Chit1” value ([1]; listed as kasugamcyin) of the same compound?
Answer: Its value is “unique amongst aminoglycosides in its ability to inhibit Chit 1”.

Question: And the “matrix gene expression (RT-PCR on lung lysate)” value ([2]; after bleomycin, kasugamycin 50 mg/Kg I.P.)?
Answer: Its value is “decreased”.

Question: What about the “pulmonary fibrosis / total lung collagen” value [2] of the same compound?
Answer: The value was “reduction of collagen; also recorded: potent inhibitor of fibrosis; also recorded: reduced pulmonary fibrosis”.

Question: And the “pulmonary fibrosis / total lung collagen” value ([2]; listed as Kasugamycin)?
Answer: Its value is “decreased pulmonary fibrosis”.

Question: What about the lung histology ([2]; bleomycin I.P. model (FIG. 7)) of the same compound?
Answer: The lung histology was “affect on histology”.

Question: What about the BAL cell recovery [3] of the same compound?
Answer: The BAL cell recovery was “affected BAL cell recovery”.

Question: And the “fibrosis / lung collagen” value [3]?
Answer: Its value is “reduced lung collagen; also recorded: potent inhibitor of fibrosis”.

Question: And the inflammation ([4]; transgenic TGFβ1 stimulation (FIG. 10))?
Answer: The inflammation was “inhibited inflammation”.

Question: And the fibrosis [4]?
Answer: The fibrosis was “potent inhibitor of fibrosis”.

Question: And the fibrosis ([4]; listed as Kasuagmyicn)?
Answer: The fibrosis was “inhibited”.

Question: And the “fibrosis (collagen accumulation)” value [5]?
Answer: The value was “potent inhibitor of fibrosis”.

Question: What about the “fibrosis (collagen accumulation)” value ([5]; listed as Kasugamycin) of the same compound?
Answer: Its value is “reduced fibrosis”.

Question: What about the “fibrosis (collagen count)” value [6] of the same compound?
Answer: Its value is “reduced fibrosis”.

Question: And the water solubility [7]?
Answer: Its water solubility is “water soluble”.
